Measurements published in PubChem BioAssay AID1259407 (Chemical Carcinogenesis Research Information System (CCRIS), 2018).
The source made the active and inactive calls. The rule behind the calls is not given here.

Tested on: CCRIS mutagenicity, Ames/micronucleus/aberration tests
Experiment: CCRIS mutagenicity studies

## COc1cccc2c1C(=O)c1c(O)c3c(c(O)c1C2=O)C[C@@](O)(C(=O)CO)C[C@@H]3O[C@H]1C[C@H](N)[C@H](O)[C@H](C)O1
End Point: IN VITRO CHROMOSOMAL ABERRATIONS, Test System: CHO-WBL CELLS, Metabolic Activation: NONE
  mutagenic call: active; positive
End Point: IN VITRO CHROMOSOMAL ABERRATIONS, Test System: HUMAN (MALE) PERIPHERAL LYMPHOCYTES, Metabolic Activation: NONE, Method: FISH (METAPHASE)
  mutagenic call: active; positive (structural changes)
End Point: IN VIVO CHROMOSOMAL ABERRATIONS, Test System: BONE MARROW CELLS, Species: RAT, Strain/Sex: WISTAR/MALE, FEMALE, Route: IP
  mutagenic call: active; positive (structural changes; abnormal metaphase)
End Point: IN VIVO CHROMOSOMAL ABERRATIONS, Test System: BONE MARROW CELLS, Species: RAT, Strain/Sex: WISTAR, Route: IP
  mutagenic call: active; positive
End Point: IN VIVO CHROMOSOMAL ABERRATIONS, Test System: BONE MARROW, Species: RAT, Strain/Sex: WISTAR/MALE, FEMALE, Route: INTRAPERITONEAL
  mutagenic call: active; positive (structural changes)
End Point: IN VIVO CHROMOSOMAL ABERRATIONS, Test System: BONE MARROW, Species: RAT, Strain/Sex: WISTAR, Route: INTRAPERITONEAL (TEST MATERIAL SOLVENT: WATER)
  mutagenic call: active; positive (structural changes)
End Point: In vitro chromosomal aberrations, Test System: Chinese hamster ovary (CHO) cells, Metabolic Activation: None
  mutagenic call: active; positive (structural changes)
End Point: In vitro chromosomal aberrations, Test System: Human (female) lymphocytes
  mutagenic call: active; positive. fucus vesiculosus extract (84696-13-9) at 0.25-1.0 mg/ml was antimutag
End Point: In vitro chromosomal aberrations, Test System: Human lymphocytes, Metabolic Activation: None
  mutagenic call: active; positive (structural changes). significantly reduced by selenomethionine treatme
End Point: In vitro micronucleus, Test System: Human peripheral blood lymphocytes, Metabolic Activation: None
  mutagenic call: active; positive
End Point: In vivo chromosomal aberrations, Test System: Bone marrow cells, Species: Rat, Strain/Sex: Wistar/Male and female, Route: Intraperitoneal
  mutagenic call: active; positive (structural changes); administration of vitamin c or vitamin e decrease
End Point: In vivo chromosomal aberrations, Test System: Bone marrow cells, Species: Rat, Strain/Sex: Wistar/Male and female, Route: Oral
  mutagenic call: active; positive (structural changes)
End Point: In vivo chromosomal aberrations, Test System: Bone marrow, Species: Rat, Strain/Sex: Wistar/Male and female, Route: Intraperitoneal (Test material solvent: either distilled water or DMSO solution)
  mutagenic call: active; positive (structural changes). prior treatment with propolis extract reduced the
End Point: In vivo micronucleus, Test System: Bone marrow erythrocytes, Species: Mouse, Strain/Sex: Swiss albino/Male, Route: Oral
  mutagenic call: inactive; negative
Test System: AMES SALMONELLA TYPHIMURIUM, Strain/Indicator: GW257, Metabolic Activation: NONE, Method: STANDARD PLATE
  mutagenic call: active; positive
Test System: AMES SALMONELLA TYPHIMURIUM, Strain/Indicator: TA97, Metabolic Activation: NONE, Method: STANDARD PLATE
  mutagenic call: inactive; negative
Test System: AMES SALMONELLA TYPHIMURIUM, Strain/Indicator: TA97, Metabolic Activation: RAT, LIVER, S-9, PHENOBARBITAL AND ALPHA-NAPHTHOFLAVONE, Method: STANDARD PLATE
  mutagenic call: inactive; negative
Test System: AMES SALMONELLA TYPHIMURIUM, Strain/Indicator: TA97A, Metabolic Activation: NONE, Method: STANDARD PLATE
  mutagenic call: inactive; negative
Test System: AMES SALMONELLA TYPHIMURIUM, Strain/Indicator: TA97A, Metabolic Activation: RAT, LIVER, S-9, AROCLOR 1254, Method: STANDARD PLATE
  mutagenic call: inactive; negative
Test System: AMES SALMONELLA TYPHIMURIUM, Strain/Indicator: TA98, Metabolic Activation: NONE, Method: PREINCUBATION
  mutagenic call: active; positive
Test System: AMES SALMONELLA TYPHIMURIUM, Strain/Indicator: TA98, Metabolic Activation: RAT, LIVER, S-9, AROCLOR 1254, Method: STANDARD PLATE
  mutagenic call: active; positive
Test System: AMES SALMONELLA TYPHIMURIUM, Strain/Indicator: TA98, Metabolic Activation: RAT, LIVER, S-9, KC500 OR PHENOBARBITAL, Method: LIQUID SUSPENSION
  mutagenic call: active; positive
Test System: AMES SALMONELLA TYPHIMURIUM, Strain/Indicator: TA98, Metabolic Activation: RAT, LIVER, S-9, PHENOBARBITAL AND ALPHA-NAPHTHOFLAVONE, Method: STANDARD PLATE
  mutagenic call: active; positive
Test System: AMES SALMONELLA TYPHIMURIUM, Strain/Indicator: TA98, Metabolic Activation: S-9, Method: PREINCUBATION
  mutagenic call: active; positive
Test System: AMES SALMONELLA TYPHIMURIUM, Strain/Indicator: TA100, Metabolic Activation: NONE, Method: PREINCUBATION
  mutagenic call: inactive; negative
Test System: AMES SALMONELLA TYPHIMURIUM, Strain/Indicator: TA100, Metabolic Activation: RAT, LIVER, S-9, AROCLOR 1254, Method: STANDARD PLATE
  mutagenic call: inactive; negative
Test System: AMES SALMONELLA TYPHIMURIUM, Strain/Indicator: TA100, Metabolic Activation: RAT, LIVER, S-9, PHENOBARBITAL AND ALPHA-NAPHTHOFLAVONE, Method: STANDARD PLATE
  mutagenic call: active; positive
Test System: AMES SALMONELLA TYPHIMURIUM, Strain/Indicator: TA100, Metabolic Activation: S-9, Method: PREINCUBATION
  mutagenic call: active; positive
Test System: AMES SALMONELLA TYPHIMURIUM, Strain/Indicator: TA102, Metabolic Activation: NONE, Method: STANDARD PLATE
  mutagenic call: active; positive
Test System: AMES SALMONELLA TYPHIMURIUM, Strain/Indicator: TA102, Metabolic Activation: RAT, LIVER, S-9, AROCLOR 1254, Method: STANDARD PLATE
  mutagenic call: active; positive
Test System: AMES SALMONELLA TYPHIMURIUM, Strain/Indicator: TA1535, Metabolic Activation: NONE, Method: STANDARD PLATE
  mutagenic call: inactive; negative
Test System: AMES SALMONELLA TYPHIMURIUM, Strain/Indicator: TA1535, Metabolic Activation: RAT, LIVER, S-9, PHENOBARBITAL AND ALPHA-NAPHTHOFLAVONE, Method: STANDARD PLATE
  mutagenic call: inactive; negative
Test System: AMES SALMONELLA TYPHIMURIUM, Strain/Indicator: TA1537, Metabolic Activation: NONE, Method: STANDARD PLATE
  mutagenic call: inactive; negative
Test System: AMES SALMONELLA TYPHIMURIUM, Strain/Indicator: TA1978/PKM101, Metabolic Activation: NONE, Method: STANDARD PLATE
  mutagenic call: active; positive
Test System: AMES SALMONELLA TYPHIMURIUM, Strain/Indicator: TA1978, Metabolic Activation: NONE, Method: STANDARD PLATE
  mutagenic call: inactive; negative
Test System: AMES SALMONELLA TYPHIMURIUM, Strain/Indicator: TA2637, Metabolic Activation: NONE, Method: STANDARD PLATE
  mutagenic call: active; positive
Test System: CHINESE HAMSTER OVARY, Strain/Indicator: CHO-AS52 (GPT), Metabolic Activation: NONE
  mutagenic call: active; positive
Test System: CHINESE HAMSTER OVARY, Strain/Indicator: CHO-K1-BH4 (HPRT), Metabolic Activation: NONE
  mutagenic call: active; positive
Test System: CHINESE HAMSTER V-79, Strain/Indicator: V-79 (HGPRT)/6-THIOGUANINE, Metabolic Activation: NONE
  mutagenic call: active; positive
Test System: CHINESE HAMSTER V-79, Strain/Indicator: V-79-MZ (HPRT)/6-THIOGUANINE, Metabolic Activation: NONE
  mutagenic call: active; positive
Test System: CHINESE HAMSTER V-79, Strain/Indicator: V-79/6-THIOGUANINE, Metabolic Activation: RAT, LIVER, HEPATOCYTES, Method: SUSPENSION/PLATE
  mutagenic call: active; positive
Test System: CHINESE HAMSTER V-79, Strain/Indicator: V-79/6-THIOGUANINE, Metabolic Activation: RAT, LIVER, HOMOGENATE, Method: SUSPENSION/PLATE
  mutagenic call: inactive; negative
Test System: CHINESE HAMSTER V-79, Strain/Indicator: V-79/8-AZAGUANINE, Metabolic Activation: NONE, Method: STANDARD PLATE
  mutagenic call: active; positive
Test System: CHINESE HAMSTER V-E5, Strain/Indicator: V-E5 (HPRT)/6-THIOGUANINE, Metabolic Activation: NONE
  mutagenic call: active; positive
Test System: E. COLI, Strain/Indicator: WP2 (HCR), Metabolic Activation: NONE, Method: STANDARD PLATE
  mutagenic call: inactive; negative
Test System: MOUSE LYMPHOMA, Strain/Indicator: L5178Y (TK+/TK-), Metabolic Activation: NONE, Method: SUSPENSION/PLATE
  mutagenic call: active; positive
